In patent publication US20050209278A1, “Piperidinyl- and piperazinyl-sulfonylmethyl hydroxamic acids and their use as protease inhibitors” (priority 2002, published 2005) one finds IC50 data, which are given here for ten compounds.

For one assay, the target named is T1, MMP-13 (Homo sapiens, UniProt P45452).
T1 construct: made in house; host or cells: baculovirus / insect cells
The assay is described as follows: In vitro MMP inhibition, IC50 determination (fluorogenic substrate I). The class given is biochemical. The settings on record: value in parentheses; read-out: MMP-13 (IC-50). The method, then: Several hydroxamic acids and salts thereof were analyzed in in vitro assays to determine their ability to inhibit the MMP cleavage of peptide substrates. […] and IC50 constants were calculated from the assayed hydroxamic acid-MMP interactions.
Human recombinant MMP-1, MMP-2, MMP-9, MMP-13, and MMP-14 were used in this assay. All enzymes were prepared in Assignee's laboratories following usual laboratory procedures. Protocols for the preparation and use of these enzymes are available in the scientific literature. See, e.g., Enzyme Nomenclature (Academic Press, San Diego, Calif., 1992) (and the citations therein). See also, Freije et al., “Molecular cloning and expression of collagenase-3, a novel human matrix metalloproteinase produced by breast carcinomas,” J Biol. Chem., 269(24), 16766-16773 (1994).
The MMP-13 was obtained as a proenzyme from a full-length cDNA clone using baculovirus, as described by V. A. Luckow, “Insect Cell Expression Technology,” Protein Engineering: Principles and Practice, pp. 183-218 (edited by J. L. Cleland et al., Wiley-Liss, Inc., 1996). The expressed proenzyme was first purified over a heparin agarose column, and then over a chelating zinc chloride column. The proenzyme was then activated by APMA for use in the assay. Further details on baculovirus expression systems may be found in, for example, Luckow et al., J. Virol., 67, 4566-79 (1993). See also, O'Reilly et al, Baculovirus Expression Vectors: A Laboratory Manual (W.H. Freeman and Co., New York, N.Y., 1992). See also, King et al., The Baculovirus Expression System: A Laboratory Guide (Chapman & Hall, London, England, 1992).
All MMPs were activated using 4-aminophenylmercuric acetate (“APMA”, Sigma Chemical, St. Louis, Mo.) or trypsin. MMP-9 also was activated using human recombinant MMP-3 (purified in Assignee's laboratory following standard cloning and purification techniques).
Two fluorogenic, methoxycoumarin-containing polypeptide substrates were used in the MMP inhibition assays: [drawing 427] Here, “Dpa” is 3-(2,4-dinitrophenyl)-L-2,3-diaminopropionyl group, and “MCA” is 7-methoxycoumarin-4-yl acetyl. Substrate (I) was purchased from Baychem (Redwood City, Calif.), and substrate II was prepared Assignee's laboratory. Substrate I was used in the IC50 determination assays, while substrate II was used in the Ki determination assays. In the absence of MMP inhibitory activity, either substrate is cleaved at the Gly-Leu peptide bond. This cleavage separates the highly fluorogenic peptide from the 2,4-dinitrophenyl quencher, thus resulting in increase of fluorescent intensity.
The stock solutions of the assayed hydroxamic acids (or salts thereof) were prepared in 1% dimethyl sulfoxide (DMSO). These stock solutions were diluted in Buffer A (100 mM Tris-HCl, 100 mM NaCl, 10 mM CaCl2, 0.05% polyoxyethylene 23 lauryl ether, pH 7.5) to obtain solutions with different hydroxamic acid concentrations, i.e., assay solutions with different concentrations of the assayed MMP inhibitory compound. The experiment controls contained the same amount of Buffer A/DMSO as the assayed sample, but contained no hydroxamic acid (or salt thereof).
The assays from which the IC50 determinations were made were performed as follows. The MMPs were activated with either trypsin or APMA (4-aminophenylmercuric acetate, Sigma Chemical, St. Louis, Mo.). The assayed hydroxamic acid samples were incubated in Microfluor™ White Plates (Dynatech, Chantilly, Va.) and analyzed on a Perkin Elmer L550 plate reader (Norwalk, Conn.). The excitation wavelength was 328 nm, and the emission wavelength—415 nm. All samples (assayed hydroxamic acids and controls) were incubated in separate plates at room temperature in the presence of 4 μM of MMP substrate (I). As stated in the previous paragraph, samples containing varying concentrations of the same assayed hydroxamic acid were prepared. Inhibition was measured as a reduction in fluorescent intensity as a function of MMP inhibitor concentration. […]

For another assay, the target named is T2, MMP-14 (Homo sapiens, UniProt P50281).
T2 construct: The catalytic domain enzyme was expressed in E. coli inclusion bodies, solubilized in urea; made in house
The assay is described as above. The assay is classed as biochemical. As to conditions: value in parentheses; read-out: MMP-14 (IC-50). The method, then: Several hydroxamic acids and salts thereof were analyzed in in vitro assays to determine their ability to inhibit the MMP cleavage of peptide substrates. […] and IC50 constants were calculated from the assayed hydroxamic acid-MMP interactions. Human recombinant MMP-1, MMP-2, MMP-9, MMP-13, and MMP-14 were used in this assay. All enzymes were prepared in Assignee's laboratories following usual laboratory procedures. Protocols for the preparation and use of these enzymes are available in the scientific literature. See, e.g., Enzyme Nomenclature (Academic Press, San Diego, Calif., 1992) (and the citations therein). See also, Freije et al., “Molecular cloning and expression of collagenase-3, a novel human matrix metalloproteinase produced by breast carcinomas,” J Biol. Chem., 269(24), 16766-16773 (1994). The MMP-14 full length cDNA was provided by Dr. Gregory Goldberg of Washington University (St. Louis, Mo.). The catalytic domain enzyme was expressed in E. coli inclusion bodies, solubilized in urea, purified on a preparative […] reverse phase HPLC column, and then refolded in the presence of zinc acetate and purified for use. All MMPs were activated using 4-aminophenylmercuric acetate (“APMA”, Sigma Chemical, St. Louis, Mo.) or trypsin. MMP-9 also was activated using human recombinant MMP-3 (purified in Assignee's laboratory following standard cloning and purification techniques). […] Substrate (I) was purchased from Baychem (Redwood City, Calif.), and substrate II was prepared Assignee's laboratory. Substrate I was used in the IC50 determination assays, while substrate II was used in the Ki determination assays. In the absence of MMP inhibitory activity, either substrate is cleaved at the Gly-Leu peptide bond. […] The stock solutions of the assayed hydroxamic acids (or salts thereof) were prepared in 1% dimethyl sulfoxide (DMSO). […] The experiment controls contained the same amount of Buffer A/DMSO as the assayed sample, but contained no hydroxamic acid (or salt thereof). The assays from which the IC50 determinations were made were performed as follows. […] Louis, Mo.). The assayed hydroxamic acid samples were incubated in MicrofluorTM White Plates (Dynatech, Chantilly, Va.) and analyzed on a Perkin Elmer […] plate reader (Norwalk, Conn.). The excitation wavelength was 328 nm, and the emission wavelength-415 nm. […] As stated in the previous paragraph, samples containing varying concentrations of the same assayed hydroxamic acid were prepared. Inhibition was measured as a reduction in fluorescent intensity as a function of MMP inhibitor concentration. […] All values in Table 2 are given in nM units. The IC50 measurements are in parenthesis.

Values joined by “and” are separate entries in the source; they are usually repeats but may differ in a detail not shown here. Identical values can stand only once.

`CCCCOc1ccc(N2CCN(S(=O)(=O)C3(C(=O)NO)CCN(C(=O)CN)CC3)CC2)cc1` [Example 292]: the IC50 at MMP-13 was found to be 0.7 nM.
`CCCCOc1ccc(N2CCN(S(=O)(=O)C3(C(=O)NO)CCN(Cc4cccnc4)CC3)CC2)cc1F` [Example 293]: at MMP-13, the IC50 was 0.8 nM.
Turning to `CCCCOc1ccc(N2CCN(S(=O)(=O)C3(C(=O)NO)CCN(c4ccc(C)cc4)CC3)CC2)cc1` [Example 295], the IC50 on MMP-13 is under 0.1 nM; at MMP-14 it was over 10000 nM.
For the compound `CCCCOc1ccc(N2CCN(S(=O)(=O)C3(C(=O)NO)CCN(c4ccc(C)cc4)CC3)CC2)cc1F` [Example 296], the IC50 on MMP-13 was 0.9 nM; on MMP-14, over 10000 nM.
For the compound `COCCOc1ccc(N2CCN(S(=O)(=O)C3(C(=O)NO)CCN(C4CC4)CC3)CC2)cc1F` [Example 297], the IC50 was 1.7 nM at MMP-13; > 10000 nM and 6470 nM on MMP-14.
Regarding `CCCCOc1ccc(N2CCN(S(=O)(=O)C3(C(=O)NO)CCN(CC4CC4)CC3)CC2)cc1` [Example 298], the IC50 was 0.9 nM on MMP-13 and over 10000 nM on MMP-14.
Turning to `Cc1cc(N2CCN(S(=O)(=O)C3(C(=O)NO)CCOCC3)CC2)ccc1OC(C)C` [Example 299], the IC50 on MMP-13 was found to be 9.3 nM.
In the case of `CS(=O)(=O)c1ccc(N2CCN(S(=O)(=O)C3(C(=O)NO)CCOCC3)CC2)cc1` [Example 300], the IC50 on MMP-13 was 61.2 nM.
Take `CCCCOc1ccc(N2CCN(S(=O)(=O)C3(C(=O)NO)CCN(C4CC4)CC3)CC2)cc1` [Example 301]: the IC50 came out at 0.3 nM at MMP-13 and 5630 nM on MMP-14.
In the same order, the values of `C#CCN1CCC(C(=O)NO)(S(=O)(=O)N2CCN(c3ccc(OCCCC)cc3)CC2)CC1` [Example 303] are 0.1 nM and 2240 nM.
